# Source: patent publication US12325710B2, “Substituted 1,2,3,4,5,6-hexahydroazepino[4,5-b]indoles for treating brain disorders” (priority 2019, dated 2025)
# Entries after “also recorded” stand apart in the source; their conditions may differ.
# Key:
# 5HT2A sensor = 5HT2A sensor assay (sLight1.3s HEK293T cells), agonist and antagonist mode; format: cell-based; conditions: for activation of 5HT2A sensor, agonist mode / competition with 5HT binding at 5HT2A sensor, antagonist mode: 10 μM of compound; for activation of 5HT2A sensor, agonist mode: FIG. 16; for competition with 5HT binding at 5HT2A sensor, antagonist mode: FIG. 18; for activation of 5HT2A sensor, agonist mode, dose response: FIG. 15
# Experimental: 5HT2A Sensor Assays. HEK293T (ATCC) 5HT2A sensor stable line (sLight1.3s) was generated via lentiviral transduction of HIV-EF1α-sLight1.3 and propagated from a single colony. Lentivirus was produced using 2nd generation lentiviral plasmids pHIV-EF1α-sLight1.3, pHCMV-G, and pCMV-deltaR8.2.
# For the screening of the 41 compounds, sLight1.3s cells were plated in 96-well plates at a density of 40000 24-hours prior to imaging. On the day of imaging, compounds solubilized in DMSO were diluted from the 100 mM stock solution to working concentrations of 1 mM, 100 μM and 1 μM with a DMSO concentration of 1%. Immediately prior to imaging, cells growing in DMEM (Gibco) were washed 2× with HBSS (Gibco) and in agonist mode 180 μL of HBSS or in antagonist mode 160 μL of HBSS was added to each well after the final wash. For agonist mode, images were taken before and after the addition of the 20 μL compound working solution into the wells containing 180 μL HBSS. This produced final compound concentrations of 100 μM, 10 μM and 100 nM with a DMSO concentration of 0.1%. For antagonist mode, images were taken before and after addition of 20 μL of 900 nM 5-HT and again after 20 μL of the compound working solutions to produce final concentrations of 100 nM for 5HT and 100 μM, 10 μM and 100 nM for the compounds with a DMSO concentration of 0.1%. Each compound was tested in triplicates (3 wells) for each concentration (100 μM, 10 μM and 100 nM). Additionally, within each plate, 100 nM 5HT and 0.1% DMSO controls were also imaged.
# For each well, the cellular membrane where the 5HT2A sensor is targeted was autofocused using the adaptive focus controls and 5 images from different regions within the well were taken with each image processed from a 2×2 binning.
# For data processing, the membranes from each image was segmented and analyzed using a custom algorithm written in MATLAB producing a single raw fluorescence intensity value. For each well the 5 raw fluorescence intensity values generated from the 5 images were averaged and the change in fluorescence intensity (dFF) was calculated as: dFF=(Fsat−Fapo)/Fapo
# For both agonist and antagonist modes, the fluorescence intensity values before compound addition in HBSS only were used as the Fapo values while the fluorescence intensity values after compound addition were used as the Fsat values.
# For agonist mode, data are as percent activation relative to 5HT, where 0 is the average of the DMSO wells and 100 is the average of the 100 μM 5HT wells.
# 5-HT2B receptors = 5-HT2B receptors (Homo sapiens, UniProt P41595); assay: 5-HT2B Gq-mediated calcium flux functional assay; format: cell-based
# Experimental: Serotonin and Opioid Receptor Functional Assays. Functional assay screens at 5-HT and opioid receptors were performed in parallel using the same compound dilutions and 384-well format high-throughput assay platforms. Assays assessed activity at all human isoforms of the receptors, except where noted for the mouse 5-HT2A receptor. Receptor constructs in pcDNA vectors were generated from the Presto-Tango GPCR library with minor modifications. All compounds were serially diluted in drug buffer (HBSS, 20 mM HEPES, pH 7.4 supplemented with 0.1% bovine serum albumin and 0.01% ascorbic acid) and dispensed into 384-well assay plates using a FLIPR^TETRA (Molecular Devices). Every plate included a positive control such as 5-HT (for all 5-HT receptors), DADLE (DOR), salvinorin A (KOR), and DAMGO (MOR). For measurements of 5-HT2A, 5-HT2B, and 5-HT2C Gq-mediated calcium flux function, HEK Flp-In 293 T-Rex stable cell lines (Invitrogen) were loaded with Fluo-4 dye for one hour, stimulated with compounds and read for baseline (0-10 seconds) and peak fold-over-basal fluorescence (5 minutes) at 25° C. on the FLIPR^TETRA. For measurement of 5-HT6 and 5-HT7a functional assays, Gs-mediated cAMP accumulation was detected using the split-luciferase GloSensor assay in HEKT cells measuring luminescence on a Microbeta Trilux (Perkin Elmer) with a 15 min drug incubation at 25° C. For 5-HT1A, 5-HT1B, 5-HT1F, MOR, KOR, and DOR functional assays, Gi/o-mediated cAMP inhibition was measured using the split-luciferase GloSensor assay in HEKT cells, conducted similarly as above, but in combination with either 0.3 μM isoproterenol (5-HT1A, 5-HT1B, 5-HT1F) or 1 μM forskolin (MOR, KOR, and DOR) to stimulate endogenous cAMP accumulation. For measurement of 5-HT1D, 5-HT1E, 5-HT4, and 5-HT5A functional assays, β-arrestin2 recruitment was measured by the Tango assay utilizing HTLA cells expressing TEV fused-β-arrestin2, as described previously with minor modifications. […]
# C57BL/6J mice = assay: Head-twitch response (HTR) assay; conditions: intraperitoneal; fumarate salts; 5-MeO-DMT 10 mg/kg as positive control
# [1] = test system: rat embryonic cortical neurons; assay: Dendritogenesis (Sholl analysis) in cultured cortical neurons; format: cell-based; conditions: 1 h treatment followed by 71 h growth; compared to vehicle (VEH)
# Experimental: Embryonic rat cortical neurons were treated for a short period of time (1 h) followed by a suitable growth period (71 h) to measure the psychoplastogenic effects of the compounds described herein. […] Therefore, the effects of ibogalogs 8-17 on dendritic growth was assessed.
# Dendritogenesis Experiments. For the dendritogenesis experiments conducted using cultured cortical neurons, timed pregnant Sprague Dawley rats were obtained from Charles River Laboratories (Wilmington, MA). Full culturing, staining, and analysis details were performed as previously described. (Dunlap, L. et al., 2019)
# [2] = test system: mouse primary sensory cortex; assay: In vivo spine dynamics, transcranial 2-photon imaging; conditions: 24 h after i.p. dose; TBG 50 mg/kg, DOI 10 mg/kg
# Experimental: In Vivo Spine Dynamics. Male and female Thy1-GFP-M line mice (n=5 per condition) were purchased from The Jackson Laboratory (JAX #007788) and maintained in UCSC animal facilities according to an IACUC approved protocol. In vivo transcranial two-photon imaging and data analysis were performed as previously described. Briefly, mice were anesthetized with an intraperitoneal (i.p.) injection of a mixture of ketamine (87 mg/kg) and xylazine (8.7 mg/kg). A small region of the exposed skull was manually thinned down to 20-30 μm for optical access. Spines on apical dendrites in mouse primary sensory cortices were imaged using a Bruker Ultima IV two-photon microscope equipped with an Olympus water-immersion objective (40×, NA=0.8) and a Ti:Sapphire laser (Spectra-Physics Mai-Tai, excitation wavelength 920 nm). Images were taken at a zoom of 4.0 (pixel size 0.143×0.143 μm) and Z-step size of 0.7 μm. The mice received an i.p. injection (injection volume=5 mL/kg) of DOI (10 mg/kg) or TBG (50 mg/kg) immediately after they recovered from anesthesia given prior to the first imaging session. The animals were re-imaged 24 h after drug administration. Dendritic spine dynamics were analyzed using ImageJ. Spine formation and elimination were quantified as percentages of spine number on day 0.
# [3] = test system: larval zebrafish expressing GCaMP5; assay: Seizurogenic potential in larval zebrafish expressing GCaMP5; format: in vivo; conditions: 200 μM; PTZ positive control
# Experimental: Transgenic larval zebrafish expressing GCaMP5G were immobilized in agarose, treated with compounds, and imaged over time. The known seizure-inducing compound PTZ was used as a positive control. All compounds were treated at 200 μM (n=2 per condition).
# larval zebrafish = assay: Larval zebrafish movement activity during a battery of light and acoustic stimuli; conditions: for behavioral phenotype at highest concentration versus lethal control: 200 μM; for behavioral phenotype with increasing concentration versus vehicle and lethal control (eugenol, 100 μM): 1 h treatment, concentration-response
# Excerpt: Stimuli applied over time are indicated under the heatmaps. Colors indicate bright LED light of respective colors, black traces represent the waveforms of acoustic stimuli, and gray vertical lines indicate physical tapping as secondary acoustic stimuli.
# Response is […] proportional to classification accuracy; 0-20% indicates no ability and 100% indicates perfect classification. […] The solid line denotes the median and the shading denotes a 95th percentile confidence interval calculated by bootstrap. N=8 wells/condition (64 animals/condition).
# zebrafish = assay: Zebrafish developmental toxicity assay; format: in vivo; conditions: 100 μM; 2 and 5 dpf
# 5-HT2B receptors, sequence (P41595 whole entry, canonical isoform): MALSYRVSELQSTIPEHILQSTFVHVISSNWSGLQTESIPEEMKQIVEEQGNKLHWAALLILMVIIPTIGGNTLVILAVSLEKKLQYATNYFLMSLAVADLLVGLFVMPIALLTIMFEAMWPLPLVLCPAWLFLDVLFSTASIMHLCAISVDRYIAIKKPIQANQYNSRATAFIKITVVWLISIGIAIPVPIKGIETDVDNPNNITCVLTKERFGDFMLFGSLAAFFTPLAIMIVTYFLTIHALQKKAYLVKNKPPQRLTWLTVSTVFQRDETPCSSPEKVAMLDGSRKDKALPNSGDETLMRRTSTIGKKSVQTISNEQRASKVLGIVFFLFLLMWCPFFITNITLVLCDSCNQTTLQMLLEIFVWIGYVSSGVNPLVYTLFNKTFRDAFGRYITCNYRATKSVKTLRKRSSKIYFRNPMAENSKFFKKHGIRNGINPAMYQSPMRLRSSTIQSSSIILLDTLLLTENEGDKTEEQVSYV
compound,measurement,setting,value
CCN(CC)C(=O)[C@@H]1C=C2c3cccc4[nH]c(Br)c(c34)C[C@H]2N(C)C1 [BOL148],"activation of 5HT2A sensor, agonist mode",5HT2A sensor,do not activate the 5HT2A sensor assay in agonist mode
same,"competition with 5HT binding at 5HT2A sensor, antagonist mode",5HT2A sensor; antagonist mode,compete with 5HT binding to 5HT2A
"COc1ccc2[nH]cc(CCN(C)C)c2c1 [Compound 5-MeO-DMT, 5-methoxy-N,N-dimethyltryptamine, reference compound]","activation of 5HT2A sensor, agonist mode",5HT2A sensor,activate the 5HT2A sensor assay in agonist mode
same,"activation of 5HT2A sensor, agonist mode, dose response",5HT2A sensor,activate a 5HT2A sensor assay in agonist mode
same,activity mode at 5-HT2B receptors,5-HT2B receptors,agonists of 5-HT2B receptors
same,hallucinogenic potential (head-twitch response),C57BL/6J mice,robust HTR
CCN(CC)CCc1c[nH]c2cc(F)ccc12 [Compound 6-F-DET],"activation of 5HT2A sensor, agonist mode",5HT2A sensor,do not activate the 5HT2A sensor assay in agonist mode
same,"competition with 5HT binding at 5HT2A sensor, antagonist mode",5HT2A sensor; antagonist mode,compete with 5HT binding to 5HT2A
COc1ccc2c(CCN(C)C)c[nH]c2c1 [Compound 6-MeO-DMT],"activation of 5HT2A sensor, agonist mode",5HT2A sensor,do not activate the 5HT2A sensor assay in agonist mode
same,"activation of 5HT2A sensor, agonist mode, dose response",5HT2A sensor,do not
same,"competition with 5-HT at 5HT2A sensor, antagonist mode, dose response","5HT2A sensor; antagonist mode, FIG. 17",compete off 5-HT
CCC1CC2CCC1N(CCc1c[nH]c3ccc(O)cc13)C2 (stereo not drawn) [Compound 11b],psychoplastogenic effect on dendritic growth (Sholl analysis),[1],weak psychoplastogens or did not promote neuronal growth
CN(C)CCc1c[nH]c2ccccc12 [DMT],"activation of 5HT2A sensor, agonist mode",5HT2A sensor,activate the 5HT2A sensor assay in agonist mode
"COc1cc(CC(C)N)c(OC)cc1I (stereo not drawn) [DOI, 2,5-dimethoxy-4-iodoamphetamine, reference compound]",spine elimination,[2],no effect on spine elimination; also recorded: Neither TBG nor DOI affected spine elimination
same,spine formation,[2],increased spine formation
same,"activation of 5HT2A sensor, agonist mode",5HT2A sensor,activate the 5HT2A sensor assay in agonist mode
"O=C(c1ccc(F)cc1)C1CCN(CCn2c(=O)[nH]c3ccccc3c2=O)CC1 [Ketanserin, ketanserin]","activation of 5HT2A sensor, agonist mode",5HT2A sensor,do not activate the 5HT2A sensor assay in agonist mode
same,"competition with 5HT binding at 5HT2A sensor, antagonist mode",5HT2A sensor; antagonist mode,compete with 5HT binding to 5HT2A
"CCN(CC)C(=O)[C@@H]1C=C2c3cccc4[nH]cc(c34)C[C@H]2N(C)C1 [LSD, lysergic acid diethylamide]","activation of 5HT2A sensor, agonist mode",5HT2A sensor,activate the 5HT2A sensor assay in agonist mode
same,"activation of 5HT2A sensor, agonist mode, dose response",5HT2A sensor,activate a 5HT2A sensor assay in agonist mode
"C1CCc2nnnn2CC1 [PTZ, pentylenetetrazole, reference compound]",seizure induction (neural activity),[3],excessive neural activity
CNC(C)Cc1ccc2c(c1)OCO2 (stereo not drawn) [R-MDMA],"activation of 5HT2A sensor, agonist mode",5HT2A sensor,do not activate the 5HT2A sensor assay in agonist mode
"O=S1OCC2C(CO1)C1(Cl)C(Cl)=C(Cl)C2(Cl)C1(Cl)Cl (stereo not drawn) [endosulfan, reference compound]",behavioral phenotype at highest concentration versus lethal control,larval zebrafish,phenotypically consistent with the lethal control
"O=C(CCCN1CCC(O)(c2ccc(Cl)cc2)CC1)c1ccc(F)cc1 [haloperidol, reference compound]","behavioral phenotype with increasing concentration versus vehicle and lethal control (eugenol, 100 μM)",larval zebrafish,"more phenotypically distinct from the vehicle control, while more closely resembling the lethal control"
"CC[C@H]1C[C@H]2C[C@H]3c4[nH]c5ccc(O)cc5c4CCN(C2)[C@@H]13 [noribogaine, reference compound]",behavioral phenotype at highest concentration versus lethal control,larval zebrafish,phenotypically consistent with the lethal control
same,"behavioral phenotype with increasing concentration versus vehicle and lethal control (eugenol, 100 μM)",larval zebrafish,"more phenotypically distinct from the vehicle control, while more closely resembling the lethal control"
same,"malformations, mortality, non-viable fish",zebrafish,"greater survival, but the majority of the animals exhibited yolk sac and/or pericardial edemas"
"O=C1NCCN1CCN1CCC(c2cn(-c3ccc(F)cc3)c3ccc(Cl)cc23)CC1 [sertindole, reference compound]","behavioral phenotype with increasing concentration versus vehicle and lethal control (eugenol, 100 μM)",larval zebrafish,"more phenotypically distinct from the vehicle control, while more closely resembling the lethal control"
"CC(C)(C)c1ccc(C(O)CCCN2CCC(C(O)(c3ccccc3)c3ccccc3)CC2)cc1 (stereo not drawn) [terfenadine, reference compound]","behavioral phenotype with increasing concentration versus vehicle and lethal control (eugenol, 100 μM)",larval zebrafish,"more phenotypically distinct from the vehicle control, while more closely resembling the lethal control"
ibogaine [reference compound],psychoplastogenic effect on dendritic growth (Sholl analysis),[1],demonstrates psychoplastogenic effects
